Experiments:
[1] = system: mouse myocardial I/R injury; test: neutrophil recruitment in mouse myocardial I/R injury (multi-photon microscopy, flow cytometry); format: in vivo; conditions: I/R 35/60 minutes
Source text: C57BL/6J wild-type mice (000664; JAX) were originally obtained from the Jackson Laboratory. LysM-EGFP or Lyz2-EGFP mice were originally obtained from Albert Einstein College of Medicine through a material transfer agreement. Mice were fed a standard rodent chow diet and were housed in microisolator cages in a pathogen-free facility in the Center for Comparative Medicine at UConn Health. All experiments followed the UConn Health Institutional Animal Care and Use Committee (IACUC) guidelines, and approval for the use of rodents was obtained from the UConn Health IACUC according to criteria outlined in the Guide for the Care and Use of Laboratory Animals from the National Institutes of Health. Both male and female mice aged from 12 to 16 weeks were used in the experiments.
(§1) Mice were subjected to 35 minutes of myocardial ischemia and 1 (for multi-photon microscopy and flow cytometry) or 22-26 (for TTC-phthalo-blue staining) hours of reperfusion. […] Briefly, anesthesia was induced with an intraperitoneal injection of ketamine hydrochloride (125 mg·kg^−1) and xylazine (12.5 mg·kg^−1). Mice were intubated with 24G×3/4″ Surflo i.v. catheter and ventilated using MiniVent 845 (Harvard Apparatus).
(§2) Surgeries were performed under an SMZ168 Stereo Zoom microscope (Motic). Ischemia was achieved by ligating the left anterior descending coronary artery (LAD) using a 6-0 silk suture with a section of PE-10 tubing placed over the LAD, 1 mm from the tip of the normally positioned left atrium. One important problem in drug administration is water solubility, which greatly affects drug absorption and bioavailability. […] In clinics, the primary percutaneous coronary intervention aims to be performed less than 90 min (within 60 min is preferable) after the patient arrives. […] After occlusion for 35 minutes, reperfusion was initiated by releasing the ligature and removing the PE-10 tubing. The chest wall was closed, the animal extubated, and body temperature was maintained by use of a 37° C. warm pad. Hearts were harvested 1 or 22-26 hours later. The loosened suture was left in place and then retied for the purpose of evaluating the ischemic area. Sham control and no drug administered control were performed as well.
To assess the neutrophil recruitment in myocardial I/R injury, LysM-EGFP mice underwent 35 minutes of ischemia and 1 hour of reperfusion. […] After being fixed with 1% PFA and washes with ice-cold PBS, cell fluorescence was assessed with an LSRII (BD Biosciences, San Jose, CA) and analyzed with FlowJo software (version 10.6). […]

[2] = system: mouse myocardial I/R injury; test: infarct size (TTC-phthalo-blue staining) and left ventricle echocardiogram in mouse myocardial I/R injury; format: in vivo
Method: as §1
as §2, with “Sham control and no drug administered control were performed as well.” left out
To assess the ischemic area at risk after 22-26 hours of reperfusion, hearts were excised, infused with PBS and freshly prepared 10% phthalo-blue (PBS with 0.75% tween 20) through the aorta and coronary arteries in a retrograde fashion, frozen at −20° C. for 10 minutes, and sliced into five to six 1 mm cross-sections with the aid of a pre-freeze acrylic matrix (ZIVIC Labs). […] The infarct area (white), the area at risk (red and white), and the total left ventricle area from each section were measured using ZEN v3.1 (Zeiss). Ratios of infarct area/area at risk (FIG. 5B) and of area at risk/left ventricle (FIG. 5C) were calculated and expressed as percentages.
To quantify left ventricle function, we performed echocardiograms on mice before and seven days after myocardial I/R injury. […] Echocardiography loops were recorded in B and two-dimensional-targeted M modes in longitudinal and short-axis views on a Vevo 3100 High-Resolution Imaging System equipped with an MX550D transducer (VisualSonics, Toronto, ON, Canada). Mice were fixed on a heated table and heart rate was monitored during the procedure. […] Left ventricular ejection fraction was determined by left ventricle tracing relating the end-systolic left ventricle area as the minimal left ventricle cross-sectional area to the end-diastolic left ventricle area as the maximum left ventricle cross-sectional area in long-axis views. […]

## CC(C)(C)C(=O)/C(=C\c1cccc([N+](=O)[O-])c1)n1cncn1 [Nexinhib20, 4,4-dimethyl-1-(3-nitrophenyl)-2-(1H-1,2,4-triazol-1-yl)-1-penten-3-one]
[1]; 1 μmol per mouse i.p.
  neutrophils retained in the blood circulation compared to vehicle controls: doubled
[1]; 1 μmol per mouse i.p., vehicle about 50%
  percentage of neutrophils in heart leukocytes: about 30%
[1]; 1 μmol per mouse i.p., vehicle about 6000
  heart neutrophil counts (CD45^+Ly6G^+): about 2000
[1]; LysM-EGFP mice, 1 μmol per mouse i.p. 30 minutes before reperfusion
  LysM-GFP^+ leukocyte recruitment to the coronary artery (EGFP fluorescence): significantly limited
[2]; I/R 35 min/24 hours, i.p. 30 minutes before reperfusion, vehicle about 50%
  infarct area percentage (infarct area/area at risk): about 40%
[2]; echocardiogram before and 7 days after I/R, vehicle reduced by about 25%
  change of ejection fraction after myocardial I/R injury: no significant reduction
[2]; echocardiogram before and 7 days after I/R, vehicle reduced by about 30%
  change of fractional shortening after myocardial I/R injury: no significant reduction
[2]; mouse myocardial I/R injury
  reduction of infarct size: about 20%

— patent US20240041838A1, “METHODS AND COMPOSITIONS FOR INHIBITION OF NEUTROPHIL RECRUITMENT IN MYCOCARDIAL ISCHEMIA-REPERFUSION INJURY” (University of Connecticut, priority 2022, published 2024)
